In BindingDB's records for doi:10.1021/jm0702579 (National Cancer Institute-Frederick, 2007):

Test: Ratio of Ki for mouse wild type C1b domain of PKCdelta to Ki for mouse PKCdelta C1b Q27E mutant

In the case of CCCC(=O)O[C@@H]1[C@@H](C)[C@@]2(O)[C@@H](C=C(CO)C[C@]3(O)C(=O)C(C)=C[C@@H]23)[C@@H]2C(C)(C)[C@]12OC(=O)CCC [(1aR,1bS,4aR,7aS,7bS,8R,9R,9aS)-4a,7b-dihydroxy-3-(hydroxymethyl)-1,1,6,8-tetramethyl-5-oxo-1,1a,1b,4,4a,5,7a,7b,8,9-decahydro-9aH-cyclopropa[3,4]benzo[1,2-e]azulene-9,9a-diyl dibutanoate], the Ki is reported as 19 nM.
